Holding throughout (type): functional, cell-based
In data set [1] the target is T1, Oatp2 (Solute carrier organic anion transporter family member 1A4) (Rattus norvegicus, UniProt O35913).
T1 sequence (O35913 whole entry): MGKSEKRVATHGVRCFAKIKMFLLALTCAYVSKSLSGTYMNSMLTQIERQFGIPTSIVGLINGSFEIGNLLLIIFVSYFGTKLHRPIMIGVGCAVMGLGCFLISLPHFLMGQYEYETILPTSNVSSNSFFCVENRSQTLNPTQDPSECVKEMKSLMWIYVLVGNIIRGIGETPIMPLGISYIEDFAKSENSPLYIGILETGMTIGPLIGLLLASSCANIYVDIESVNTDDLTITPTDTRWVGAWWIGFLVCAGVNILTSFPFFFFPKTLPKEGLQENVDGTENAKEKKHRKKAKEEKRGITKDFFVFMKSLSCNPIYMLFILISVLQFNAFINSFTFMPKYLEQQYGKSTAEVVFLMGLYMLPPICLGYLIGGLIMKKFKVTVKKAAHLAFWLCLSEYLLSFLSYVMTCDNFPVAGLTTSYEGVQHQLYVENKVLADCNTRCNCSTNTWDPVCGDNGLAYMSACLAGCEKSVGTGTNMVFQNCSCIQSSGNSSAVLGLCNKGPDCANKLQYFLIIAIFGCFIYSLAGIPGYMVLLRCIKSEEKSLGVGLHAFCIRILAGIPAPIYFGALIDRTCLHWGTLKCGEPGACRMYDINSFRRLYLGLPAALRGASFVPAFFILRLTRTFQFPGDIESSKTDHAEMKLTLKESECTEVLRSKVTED
Nature of the data set: TP_TRANSPORTER: inhibition of Digoxin uptake (Digoxin: 0.05 uM, Ketoprofen: 1000 uM) in Oatp2-expressing LLC-PK1 cells. More on the design: scale not given: the % may be the effect or the level left. The following applies: pig, probe Digoxin, read-out: Activity.

Data set [2] concerns the target T2, Oatp1 (Solute carrier organic anion transporter family member 1A1) (Rattus norvegicus, UniProt P46720).
T2 sequence (P46720 whole entry): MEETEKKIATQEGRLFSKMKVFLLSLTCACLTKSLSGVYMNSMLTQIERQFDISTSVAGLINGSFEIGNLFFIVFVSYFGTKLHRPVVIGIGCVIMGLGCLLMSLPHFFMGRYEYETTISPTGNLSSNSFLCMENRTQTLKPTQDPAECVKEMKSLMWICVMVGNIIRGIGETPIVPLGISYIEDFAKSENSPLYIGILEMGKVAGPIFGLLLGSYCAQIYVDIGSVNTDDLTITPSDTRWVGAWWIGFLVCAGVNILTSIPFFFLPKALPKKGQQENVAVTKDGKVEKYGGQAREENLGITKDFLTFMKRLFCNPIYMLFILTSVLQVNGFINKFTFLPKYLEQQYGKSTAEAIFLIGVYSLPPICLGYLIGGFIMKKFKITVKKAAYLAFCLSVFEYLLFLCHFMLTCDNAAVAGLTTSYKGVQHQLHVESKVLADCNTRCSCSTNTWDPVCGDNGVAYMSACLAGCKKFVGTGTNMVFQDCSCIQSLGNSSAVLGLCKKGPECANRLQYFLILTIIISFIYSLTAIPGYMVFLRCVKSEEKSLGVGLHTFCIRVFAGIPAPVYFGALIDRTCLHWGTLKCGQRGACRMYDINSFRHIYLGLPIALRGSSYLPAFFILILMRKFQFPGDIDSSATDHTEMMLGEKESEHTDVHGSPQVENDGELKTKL
The data set is described as follows: TP_TRANSPORTER: inhibition of E217betaG uptake (E217betaG: 0.1 uM, Ketoprofen: 1000 uM) in Oatp1-expressing LLC-PK1 cells. More on the design: scale not given: the % may be the effect or the level left. The note with it: pig, probe E217betaG, read-out: Activity.

In data set [3] the target is T3, Solute carrier organic anion transporter family member 1A4 (Rattus norvegicus, UniProt O35913).
T3 sequence (O35913 whole entry): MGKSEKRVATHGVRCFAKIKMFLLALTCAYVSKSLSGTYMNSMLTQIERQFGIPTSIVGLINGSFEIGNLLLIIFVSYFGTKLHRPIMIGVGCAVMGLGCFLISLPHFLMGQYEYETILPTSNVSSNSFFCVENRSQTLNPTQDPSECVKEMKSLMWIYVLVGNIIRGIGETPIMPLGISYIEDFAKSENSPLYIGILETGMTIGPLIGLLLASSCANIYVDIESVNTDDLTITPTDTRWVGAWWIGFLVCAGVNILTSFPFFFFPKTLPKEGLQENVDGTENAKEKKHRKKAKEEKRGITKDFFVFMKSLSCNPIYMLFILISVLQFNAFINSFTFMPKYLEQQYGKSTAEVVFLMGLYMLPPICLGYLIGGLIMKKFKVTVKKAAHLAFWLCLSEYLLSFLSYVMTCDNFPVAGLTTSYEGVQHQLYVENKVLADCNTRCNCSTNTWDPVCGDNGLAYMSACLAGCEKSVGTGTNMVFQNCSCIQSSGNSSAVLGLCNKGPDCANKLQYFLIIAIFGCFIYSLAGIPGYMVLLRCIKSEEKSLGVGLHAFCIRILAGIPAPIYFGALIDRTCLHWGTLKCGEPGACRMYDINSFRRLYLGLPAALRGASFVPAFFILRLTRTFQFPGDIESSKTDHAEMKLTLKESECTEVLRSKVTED
The data set is described as follows: TP_TRANSPORTER: inhibition of Digoxin uptake in Oatp2-expressing LLC-PK1 cells.

The target of data set [4] is T2, Oatp1 (Solute carrier organic anion transporter family member 1A1). The data set is described as follows: TP_TRANSPORTER: inhibition of E217betaG uptake (E217betaG: 0.1 uM, Indomethacin: 1000 uM) in Oatp1-expressing LLC-PK1 cells. More on the design: scale not given: the % may be the effect or the level left. The following applies: pig, probe E217betaG, read-out: Activity.

Data set [5] addresses T1, Oatp2 (Solute carrier organic anion transporter family member 1A4). The data set is described as follows: TP_TRANSPORTER: inhibition of Digoxin uptake (Digoxin: 0.05 uM, Indomethacin: 1000 uM) in Oatp2-expressing LLC-PK1 cells. On the set-up: scale not given: the % may be the effect or the level left. The following applies: pig, probe Digoxin, read-out: Activity.
Data set [6] addresses T2, Oatp1 (Solute carrier organic anion transporter family member 1A1). Nature of the data set: TP_TRANSPORTER: inhibition of E217betaG uptake (E217betaG: 0.1 uM, Deoxycorticosterone: 100 uM) in Oatp1-expressing LLC-PK1 cells. The following applies: pig, probe E217betaG, read-out: Activity. On the set-up: scale not given: the % may be the effect or the level left.
The target in data set [7] is T1, Oatp2 (Solute carrier organic anion transporter family member 1A4). Nature of the data set: TP_TRANSPORTER: inhibition of Digoxin uptake (Digoxin: 0.05 uM, Deoxycorticosterone: 100 uM) in Oatp2-expressing LLC-PK1 cells. On the set-up: scale not given: the % may be the effect or the level left. The note with it: pig, probe Digoxin, read-out: Activity.
The target of data set [8] is T2, Oatp1 (Solute carrier organic anion transporter family member 1A1). Nature of the data set: TP_TRANSPORTER: inhibition of E217betaG uptake (E217betaG: 0.1 uM, Tolbutamide: 1000 uM) in Oatp1-expressing LLC-PK1 cells. More on the design: scale not given: the % may be the effect or the level left. The following applies: pig, probe E217betaG, read-out: Activity.
In data set [9] the target is T1, Oatp2 (Solute carrier organic anion transporter family member 1A4). Nature of the data set: TP_TRANSPORTER: inhibition of Digoxin uptake (Digoxin: 0.05 uM, Tolbutamide: 1000 uM) in Oatp2-expressing LLC-PK1 cells. More on the design: scale not given: the % may be the effect or the level left. The following applies: pig, probe Digoxin, read-out: Activity.
For data set [10] the target is unchanged. Nature of the data set: TP_TRANSPORTER: inhibition of Digoxin uptake (Digoxin: 0.05 uM, Glibenclamide: 1000 uM) in Oatp2-expressing LLC-PK1 cells. On the set-up: scale not given: the % may be the effect or the level left. The note with it: pig, probe Digoxin, read-out: Activity.
Data set [11] has as its target T2, Oatp1 (Solute carrier organic anion transporter family member 1A1). The data set is described as follows: TP_TRANSPORTER: inhibition of E217betaG uptake (E217betaG: 0.1 uM, Glibenclamide: 1000 uM) in Oatp1-expressing LLC-PK1 cells. More on the design: scale not given: the % may be the effect or the level left. The following applies: pig, probe E217betaG, read-out: Activity.

This is an account of results in ChEMBL document CHEMBL2073782, “Comparative inhibitory effects of different compounds on rat oatpl (slc21a1)- and Oatp2 (Slc21a5)-mediated transport” (Pharm Res, 2002).

In general, Ki refers to the dissociation constant of the complex between target and ligand, obtained from inhibition or displacement.

On to `CC(C(=O)O)c1cccc(C(=O)c2ccccc2)c1` (configuration not stated) [KETOPROFEN], for which the activity at 1000 µM in data set [1] was 30.2%; in [2], 6.89%. In [3], `C=C[C@H]1C[N@@]2CC[C@H]1C[C@H]2[C@H](O)c1ccnc2ccc(OC)cc12` [QUININE] registered a Ki of 3.81 µM. Same read-out and setting: in the case of `C=C[C@H]1C[N@@]2CC[C@H]1C[C@@H]2[C@@H](O)c1ccnc2ccc(OC)cc12` [QUINIDINE] it was 120 µM. As to `COc1ccc2c(c1)c(CC(=O)O)c(C)n2C(=O)c1ccc(Cl)cc1` [INDOMETHACIN], the activity at 1000 µM in [4] was 1.16%; in data set [5], 14.3%.

With `C[C@]12CC[C@H]3[C@@H](CCC4=CC(=O)CC[C@@]43C)[C@@H]1CC[C@@H]2C(=O)CO` [DESOXYCORTICOSTERONE], the activity at 100 µM in data set [6] is 1.34%; in data set [7], 13.6%. As to `CCCCNC(=O)NS(=O)(=O)c1ccc(C)cc1` [TOLBUTAMIDE], the activity at 1000 µM is 32.9% in data set [8] and 47.3% in data set [9]. On to `COc1ccc(Cl)cc1C(=O)NCCc1ccc(S(=O)(=O)NC(=O)NC2CCCCC2)cc1` [GLYBURIDE], for which the activity at 1000 µM in [10] came out at 1.61%; in data set [11], 2.33%.
